In patent publication US7456165B2, “HCV NS5B inhibitors” (Bristol-Myers Squibb Company, priority 2006, dated 2008):
pEC50, pIC50: −log10 of the molar value.

How the values were obtained:
HCV NS5B = molecular target: T1, HCV NS5B (Hepatitis C virus genotype 1b, UniProt Q9WMX2); assay: HCV NS5B RdRp enzyme assay (preincubation protocol); format: biochemical; conditions: HCV NS5B RdRp genotype 1b
T1 construct: The protein was expressed with an 18 amino acid C-terminal truncation to enhance the solubility; made in house; host or cells: E. coli BL21(DE3)
T1 sequence (Q9WMX2 2420-2992): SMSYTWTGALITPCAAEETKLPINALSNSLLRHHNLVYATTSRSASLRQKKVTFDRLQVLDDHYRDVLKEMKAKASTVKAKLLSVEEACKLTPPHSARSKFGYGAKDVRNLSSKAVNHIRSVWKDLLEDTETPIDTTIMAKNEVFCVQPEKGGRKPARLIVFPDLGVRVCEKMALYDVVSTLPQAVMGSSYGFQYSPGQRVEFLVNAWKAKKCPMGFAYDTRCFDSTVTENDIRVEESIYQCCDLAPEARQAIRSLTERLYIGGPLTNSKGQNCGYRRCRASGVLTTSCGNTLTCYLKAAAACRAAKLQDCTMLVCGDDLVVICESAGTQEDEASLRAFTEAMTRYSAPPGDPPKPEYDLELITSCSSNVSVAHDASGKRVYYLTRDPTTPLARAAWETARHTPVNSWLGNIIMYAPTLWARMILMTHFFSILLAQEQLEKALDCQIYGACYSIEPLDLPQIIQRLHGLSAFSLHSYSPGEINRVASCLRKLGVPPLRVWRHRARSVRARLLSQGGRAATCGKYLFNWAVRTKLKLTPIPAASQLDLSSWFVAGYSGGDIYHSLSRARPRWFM
Experimental: HCV NS5B RdRp cloning, expression, and purification. The cDNA encoding the NS5B protein of HCV, genotype 1b, was cloned into the pET21a expression vector. The protein was expressed with an 18 amino acid C-terminal truncation to enhance the solubility. The E. coli competent cell line BL21(DE3) was used for expression of the protein. Cultures were grown at 37° C. for ˜4 hours until the cultures reached an optical density of 2.0 at 600 nm. The cultures were cooled to 20° C. and induced with 1 mM IPTG. Fresh ampicillin was added to a final concentration of 50 μg/ml and the cells were grown overnight at 20° C.
Cell pellets (3 L) were lysed for purification to yield 15-24 mgs of purified NS5B. The lysis buffer consisted of 20 mM Tris-HCl, pH 7.4, 500 mM NaCl, 0.5% triton X-100, 1 mM DTT, 1 mM EDTA, 20% glycerol, 0.5 mg/ml lysozyme, 10 mM MgCl2, 15 ug/ml deoxyribonuclease I, and Complete TM protease inhibitor tablets (Roche). After addition of the lysis buffer, frozen cell pellets were resuspended using a tissue homogenizer. To reduce the viscosity of the sample, aliquots of the lysate were sonicated on ice using a microtip attached to a Branson sonicator. The sonicated lysate was centrifuged at 100,000×g for 1 hr at 4° C. and filtered through a 0.2 μm filter unit (Corning).
The protein was purified using three sequential chromatography steps: Heparin sepharose CL-6B, polyU sepharose 4B, and Hitrap SP sepharose (Pharmacia). The chromatography buffers were identical to the lysis buffer but contained no lysozyme, deoxyribonuclease I, MgCl2 or protease inhibitor and the NaCl concentration of the buffer was adjusted according to the requirements for charging the protein onto the column. Each column was eluted with a NaCl gradient which varied in length from 5-50 column volumes depending on the column type. After the final chromatography step, the resulting purity of the enzyme is >90% based on SDS-PAGE analysis. The enzyme was aliquoted and stored at −80° C.
Standard HCV NS5B RdRp enzyme assay. HCV RdRp genotype 1b assays were run in a final volume of 60 μl in 96 well plates (Costar 3912 H. The assay buffer is composed of 20 mM Hepes, pH 7.5, 2.5 mM KCl, 2.5 mM MgCl2, 1 mM DTT, 1.6 U RNAse inhibitor (Promega N2515), 0.1 mg/ml BSA (Promega R3961), and 2% glycerol. All compounds were serially diluted (3-fold) in DMSO and diluted further in water such that the final concentration of DMSO in the assay was 2%. HCV RdRp genotype 1b enzyme was used at a final concentration of 28 nM. A polyA template was used at 6 nM, and a biotinylated oligo-dT12 primer was used at 180 nM final concentration. Template was obtained commercially (Amersham 27-4110). Biotinylated primer was prepared by Sigma Genosys. 3H-UTP was used at 0.6 μCi (0.29 μM total UTP). Reactions were initiated by the addition of enzyme, incubated at 30° C. for 60 min, and stopped by adding 25 μl of 50 mM EDTA containing SPA beads (4 μg/μl, Amersham RPNQ 0007 H. Plates were read on a Packard Top Count NXT after >1 hr incubation at room temperature.
Modified HCV NS5B RdRp enzyme assay. A modified enzyme assay was performed essentially as described for the standard enzyme assay except for the following: The biotinylated oligo dT12 primer was precaptured on streptavidin-coated SPA beads by mixing primer and beads in assay buffer and incubating at room temperature for one hour. Unbound primer was removed after centrifugation. The primer-bound beads were resuspended in 20 mM Hepes buffer, pH 7.5 and used in the assay at final concentrations of 20 nM primer and 0.67 μg/μl beads. Order of addition in the assay: enzyme (14 nM) was added to diluted compound followed by the addition of a mixture of template (0.2 nM), 3H-UTP (0.6 μCi, 0.29 μM), and primer-bound beads, to initiate the reaction; concentrations given are final. Reactions were allowed to proceed for 4 hours at 30° C.
IC50 values for compounds were determined using seven different [I]. […]

HCV replicon cells = assay: HCV replicon FRET assay; format: cell-based; conditions: Hepatitis C virus
Excerpt: FRET Assay Preparation. To perform the HCV FRET screening assay, 96-well cell culture plates were used. The FRET peptide (Anaspec, Inc.) (Taliani et al., Anal Biochem. 1996, 240, 60-67) contains a fluorescence donor, EDANS, near one end of the peptide and an acceptor, DABCYL, near the other end. The fluorescence of the peptide is quenched by […] resonance energy transfer (RET) between the donor and the acceptor, but as the NS3 protease cleaves the peptide the products are released from RET quenching and the fluorescence of the donor becomes apparent. The assay reagent was made as follows: 5× cell Luciferase cell culture lysis reagent from Promega (#E153A) diluted to 1× with dH2O, NaCl added to 150 mM final, the FRET peptide diluted to 20 μM final from a 2 mM stock.
To prepare plates, HCV replicon cells, with or without a Renilla luciferase reporter gene, were trypsinized and placed into each well of a 96-well plate with titrated test compounds added in columns 3 through 12; columns 1 and 2 contained a control compound (HCV protease inhibitor), and the bottom row contained cells without compound. The plates were then placed in a CO2 incubator at 37° C.
Assays. Subsequent to addition of the test compounds described above (FRET Assay Preparation), at various times the plate was removed and Alamar blue solution (Trek Diagnostics, #00-100) was added per well as a measure of cellular toxicity. After reading in a Cytoflour 4000 instrument (PE Biosystems), plates were rinsed with PBS and then used for FRET assay by the addition of 30 ul of the FRET peptide assay reagent described above (FRET Assay Preparation) per well. The plate was then placed into the Cytoflour 4000 instrument which had been set to 340 excite/490 emission, automatic mode for 20 cycles and the plate read in a kinetic mode. Typically, the signal to noise using an endpoint analysis after the reads was at least three-fold. Alternatively, after Alamar blue reading, plates were rinsed with PBS, 50 ul of DMEM (high glucose) without phenol red was added and plates were then used for luciferase assay using the Promega Dual-Glo Luciferase Assay System.
Compound analysis was determined by quantification of the relative HCV replicon inhibition and the relative cytotoxicity values. To calculate cytoxicity values, the average Alamar Blue fluorescence signals from the control wells were set as 100% non-toxic. The individual signals in each of the compound test wells were then divided by the average control signal and multiplied by 100% to determine […]. To calculate the HCV replicon inhibition values, an average background value was obtained from the two wells containing the highest amount of HCV protease inhibitor at the end of the assay period. These numbers were similar to those obtained from naïve Huh-7 cells.
The background numbers were then subtracted from the average signal obtained from the control wells and this number was used as 100% activity. The individual signals in each of the compound test wells were then divided by the averaged control values after background subtraction and multiplied by 100% to determine percent activity. EC50 values for a protease inhibitor titration were calculated as the concentration which caused a 50% reduction in FRET or luciferase activity. The two numbers generated for the compound plate, percent cytoxicity and percent activity were used to determine compounds of interest for further analysis.

Structure (SMILES) | pIC50 (HCV NS5B) | pEC50 (HCV replicon cells)
O=C(O)c1ccc2c(C3CCCCC3)c3n(c2c1)CC(c1nnn(CCO)n1)=Cc1ccccc1-3 [Example 5, 13-cyclohexyl-6-[2-(2-hydroxyethyl)-2H-tetrazol-5-yl]-7H-indolo[2,1-a][2]benzazepine-10-carboxylic acid] | < 6.30 | < 6.30
Cn1nc(C2=Cc3ccccc3-c3c(C4CCCCC4)c4ccc(C(=O)O)cc4n3C2)nc1CC1CCOCC1 [Example 42, 13-cyclohexyl-6-[1-methyl-5-[(tetrahydro-2H-pyran-4-yl)methyl]-1H-1,2,4-triazol-3-yl]-7H-indolo[2,1-a][2]benzazepine-10-carboxylic acid] | < 6.30 | < 6.30
COC(=O)c1ccc2c(C3CCCCC3)c3n(c2c1)CC(c1nc(CS(C)(=O)=O)no1)=Cc1ccccc1-3 [Example 26, 13-cyclohexyl-6-[3-[(methylsulfonyl)methyl]-1,2,4-oxadiazol-5-yl-]7H-indolo[2,1-a][2]benzazepine-10-carboxylic acid, methyl ester] | < 6.30 | < 6.30
COC(=O)c1ccc2c(C3CCCCC3)c3n(c2c1)CC(c1nc(CC2CCOCC2)n(C)n1)=Cc1ccccc1-3 [Example 41, 13-cyclohexyl-6-[1-methyl-5-[(tetrahydro-2H-pyran-4-yl)methyl]-1H-1,2,4-triazol-3-yl]-7H-indolo[2,1-a][2]benzazepine-10-carboxylic acid, methyl ester] | < 6.30 | < 6.30
O=C(O)c1ccc2c(C3CCCCC3)c3n(c2c1)CC(c1nnnn1CC1CCOCC1)=Cc1ccccc1-3 [Example 13, 13-cyclohexyl-6-[1-[(tetrahydro-2H-pyran-4-yl)methyl]-1H-tetrazol-5-yl]-7H-indolo[2,1-a][2]benzazepine-10-carboxylic acid] | 6.30 to 9.00 | < 6.30
CN(C)S(=O)(=O)NC(=O)c1ccc2c(C3CCCCC3)c3n(c2c1)CC(c1ncc(CCC(=O)N2CCOCC2)o1)=Cc1ccccc1-3 [Example 37, 13-cyclohexyl-N-[(dimethylamino)sulfonyl]-6-[5-[3-(4-morpholinyl)-3-oxopropyl]-2-oxazolyl-]7H-indolo[2,1-a][2]benzazepine-10-carboxamide] | 6.30 to 9.00 | 6.30 to 9.00
CS(=O)(=O)Cc1noc(C2=Cc3ccccc3-c3c(C4CCCCC4)c4ccc(C(=O)O)cc4n3C2)n1 [Example 27, 13-cyclohexyl-6-[3-[(methylsulfonyl)methyl]-1,2,4-oxadiazol-5-yl]-7H-indolo[2,1-a][2]benzazepine-10-carboxylic acid] | 6.30 to 9.00 | < 6.30
COc1ccc2c(c1)CC(c1ncco1)Cn1c-2c(C2CCCCC2)c2ccc(C(=O)NS(=O)(=O)N(C)C)cc21 (stereo not shown) [Example 58, 13-Cyclohexyl-N-((dimethylamino)sulfonyl)-3-methoxy-6-(1,3-oxazol-2-yl)-6,7-dihydro-5H-indolo[2,1-a][2]benzazepine-10-carboxamide] | 6.30 to 9.00 | 6.30 to 9.00
O=C(O)c1ccc2c(C3CCCCC3)c3n(c2c1)CC(c1ncc(CCC(=O)N2CCOCC2)o1)=Cc1ccccc1-3 [Example 36, 13-cyclohexyl-6-[5-[3-(4-morpholinyl)-3-oxopropyl]-2-oxazolyl]-7H-indolo[2,1-a][2]benzazepine-10-carboxylic acid] | 6.30 to 9.00 | < 6.30
O=C(O)c1ccc2c(C3CCCCC3)c3n(c2c1)CC(c1nnn(CC2CC2)n1)=Cc1ccccc1-3 [Example 6, 13-cyclohexyl-6-[2-(cyclopropylmethyl)-2H-tetrazol-5-yl]-7H-indolo[2,1-a][2]benzazepine-10-carboxylic acid] | < 6.30 | < 6.30
O=C(O)c1ccc2c(C3CCCCC3)c3n(c2c1)C=C(c1nnn(CC2CCOCC2)n1)Cc1ccccc1-3 [Example 12, 13-cyclohexyl-6-[2-[(tetrahydro-2H-pyran-4-yl)methyl]-2H-tetrazol-5-yl]-5H-indolo[2,1-a][2]benzazepine-10-carboxylic acid] | < 6.30 | < 6.30
O=C(O)c1ccc2c(C3CCCCC3)c3n(c2c1)C=C(c1nnnn1CC1CCOCC1)Cc1ccccc1-3 [Example 14, 13-cyclohexyl6-[1-[(tetrahydro-2H-pyran-4-yl)methyl]-1H-tetrazol-5-yl]-5H-indolo[2,1-a][2]benzazepine-10-carboxylic acid] | < 6.30 | < 6.30
COc1ccc2c(c1)C=C(c1nnn(CC3CCOCC3)n1)Cn1c-2c(C2CCCCC2)c2ccc(C(=O)NS(=O)(=O)N(C)C)cc21 [Example 17, 13-cyclohexyl-N-[(dimethylamino)sulfonyl]-3-methoxy-6-[2-[(tetrahydro-2H-pyran-4-yl)methyl]-2H-tetrazol-5-yl]-7H-indolo[2,1-a][2]benzazepine-10-carboxamide] | 6.30 to 9.00 | 6.30 to 9.00
Cc1noc(C2=Cc3ccccc3-c3c(C4CCCCC4)c4ccc(C(=O)NS(=O)(=O)N(C)C)cc4n3C2)n1 [Example 25, 13-cyclohexyl-N-[(dimethylamino)sulfonyl]-6-(3-methyl-1,2,4-oxadiazol-5-yl)-7H-indolo[2,1-a][2]benzazepine-10-carboxamide] | 6.30 to 9.00 | 6.30 to 9.00
